Tested on: Balb/c mice
Assay: Bronchodilatory effect of inhaled quaternary ammonium salts; methacholine-induced bronchoconstriction (Penh, whole body plethysmography)
Format: in vivo
Conditions: for inhibition of the bronchoconstriction to methacholine: female BALB/c mice, 5 min inhalation of 1.29 mg/ml aerosol, 80 mg/ml methacholine
Procedure: Female BALB/c mice, weight range 19-22 g, were obtained from Charles River Laboratories (Kingston, N.C.). They received food and water ad libitum. All procedures in these studies were in compliance with the Animal Welfare Act Regulation, 9CFP. Parts 1 and 2, Publication (NIH) 85-23, 1985.
Compounds for aerosol administration were prepared in sterile Dulbecco's Phosphate Buffered Saline. Mice were placed in a carousel-style, nose only, exposure chamber and allowed to inhale aerosols for five minutes, using an ICN SPAG-2 nebulizer. This nebulizer generates a mean aerosol particle size of 1.3 microns at a rate of approximately 0.25 ml/minute.
Ten minutes and 36 hours later, the mice were moved to whole body plethysmograph chambers. Bronchoconstriction was induced in mice by administration of an 80 mg/ml methacholine (MC) aerosol into the plethysmograph chambers for 5 minutes. The mice were allowed to inhale an aerosol containing 80 mg/ml methacholine following inhalation treatment with DPBS vehicle (Dulbecco's Phosphate Buffered Saline), or 80 mg/ml methacholine following inhalation treatment with 1.29 mg/ml of (3S)-3-(2-amino-2-oxo-1,1-diphenylethyl)-1-[2-(2,3-dihydro-1-benzofuran-5-yl)ethyl]-1-methylpyrrolidinium iodide. The average enhanced pause (Penh, lung resistance), corresponding to airflow resistance, was determined and statistically analyzed using Kruskal-Wallis one way ANOVA. In order to determine the baseline, saline aerosol (without methacholine) was also separately administered to the mice.

C[N+]1(CCc2ccc3c(c2)CCO3)CC[C@@H](C(C(N)=O)(c2ccccc2)c2ccccc2)C1.[I-] (stereo partly drawn) [Example I, (3S)-3-(2-amino-2-oxo-1,1-diphenylethyl)-1-[2-(2,3-dihydro-1-benzofuran-5-yl)ethyl]-1-methylpyrrolidinium iodide]
inhibition of the bronchoconstriction to methacholine (measured 10 minutes after dosing (FIG. 1)): 100% | inhibition of the bronchoconstriction to methacholine (measured 36 hours after dosing (FIG. 2)): 61% | efficacy (lung resistance) compared to tertiary amine form (varying concentrations, quaternary compound vs its tertiary amine form (FIGS. 3A-3C)): extended activity

Source: patent US6951950B2, “Quaternary ammonium compounds” (Pharmacia & Upjohn Co, priority 2002, dated 2005)
